Assay results published in patent US9493441B2, “Acyclic cyanoethylpyrazoles as janus kinase inhibitors” (Merck Sharp & Dohme Corp., priority 2011, dated 2016).
Like-named read-outs stand apart in the source and are kept apart here.

Columns and labels:
JAK1 = JAK1 (Homo sapiens (Human), UniProt P23458); assay: Jak biochemical HTRF assay, JAK1
JAK2 = JAK2 (Homo sapiens (Human), UniProt O60674); assay: Jak biochemical HTRF assay, JAK2
[1] = read-out: JAK1 IC50, recombinant GST-tagged catalytic domain, [ATP] 31.8 μM
[2] = read-out: JAK2 IC50, recombinant GST-tagged catalytic domain, [ATP] […]
[3] = JAK1 IC50 (nM), recombinant GST-tagged catalytic domain, [ATP] 31.8 μM
[4] = JAK2 IC50 (nM), recombinant GST-tagged catalytic domain, [ATP] […]

JAK2, sequence (O60674 849-1124): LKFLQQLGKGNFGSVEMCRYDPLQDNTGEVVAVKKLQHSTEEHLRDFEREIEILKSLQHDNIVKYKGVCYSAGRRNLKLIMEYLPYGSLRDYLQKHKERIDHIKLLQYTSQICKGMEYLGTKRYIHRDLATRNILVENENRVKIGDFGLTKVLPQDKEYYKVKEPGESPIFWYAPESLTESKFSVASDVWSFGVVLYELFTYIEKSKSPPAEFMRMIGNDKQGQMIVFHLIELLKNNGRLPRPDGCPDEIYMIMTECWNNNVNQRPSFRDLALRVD
JAK1, sequence (P23458 875-1153): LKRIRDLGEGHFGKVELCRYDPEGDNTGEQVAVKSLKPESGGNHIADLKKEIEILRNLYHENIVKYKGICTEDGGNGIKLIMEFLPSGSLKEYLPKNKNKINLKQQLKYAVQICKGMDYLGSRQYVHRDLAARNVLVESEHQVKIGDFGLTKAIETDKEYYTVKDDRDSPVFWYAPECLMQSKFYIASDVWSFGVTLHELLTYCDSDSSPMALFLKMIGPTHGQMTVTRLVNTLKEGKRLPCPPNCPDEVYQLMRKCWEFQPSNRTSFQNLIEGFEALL

| Molecule | IC50 (JAK1; [1]) [nM] | IC50 (JAK2; [2]) [nM] | IC50 (JAK1; [3]) [nM] | IC50 (JAK2; [4]) [nM] |
| --- | --- | --- | --- | --- |
| 1-[(1R or 1S)-2-cyano-1-cyclopropylethyl]-3-{[4-(methylsulfonyl)phenyl]amino}-1H-pyrazole-4-carboxamide [Example 14-1] | 1 | 8 |  |  |
| 1-[(1R or 1S)-2-cyano-1-cyclopropylethyl]-3-{[4-(methylsulfonyl)phenyl]amino}-1H-pyrazole-4-carboxamide [Example 14-2] | 5 | 55 |  |  |
| C[C@H](C#N)[C@H](C)n1cc(C(N)=O)c(Nc2ccccc2)n1 (mixture of isomers) [Example 1-22, 1-((2S, 3S and 2R, 2R)-3-cyclobutan-2-yl)-3-(phenylamino)-1H-pyrazole-4-carboxamide] |  |  | 32 | 198 |
| C[C@@H](C#N)[C@H](C)n1cc(C(N)=O)c(Nc2ccccc2)n1 (mixture of isomers) [Example 1-23, 1-((2S, 3R and 2R, 3S)-3-cyclobutan-2-yl)-3-(phenylamino)-1H-pyrazole-4-carboxamide] |  |  | 123 | 413 |
| CC(C)(C)COC(=O)N1CCC([C@H](CC#N)n2cc(C(N)=O)c(Nc3ccc(F)cc3)n2)CC1 (single isomer, unassigned) [Example 12-2, 2,2-dimethylpropyl 4-[(1S or 1R)-1-{4-carbamoyl-3-[(4-fluorophenyl)amino]-1H-pyrazol-1-yl}-2-cyanoethyl]piperidine-1-carboxylate] |  |  | 718 | 1500 |
| CC(C)COC(=O)N1CCC([C@H](CC#N)n2cc(C(N)=O)c(Nc3ccc(F)cc3)n2)CC1 (single isomer, unassigned) [Example 12-3, 2-methylpropyl 4-[(1S or 1R)-1-{4-carbamoyl-3-[(4-fluorophenyl)amino]-1H-pyrazol-1-yl}-2-cyanoethyl]piperidine-1-carboxylate] |  |  | 245 | 1500 |
| CCOC(=O)N1CCC([C@H](CC#N)n2cc(C(N)=O)c(Nc3ccc(F)cc3)n2)CC1 (single isomer, unassigned) [Example 12-4, ethyl 4-[(1S or 1R)-1-{4-carbamoyl-3-[(4-fluorophenyl)amino]-1H-pyrazol-1-yl}-2-cyanoethyl]piperidine-1-carboxylate] |  |  | 44 | 1050 |
| N#CC[C@@H](C1CCN(C(=O)OC2CCCCC2)CC1)n1cc(C(N)=O)c(Nc2ccc(F)cc2)n1 (single isomer, unassigned) [Example 12-5, cyclohexyl 4-[(1S or 1R)-1-{4-carbamoyl-3-[(4-fluorophenyl)amino]-1H-pyrazol-1-yl}-2-cyanoethyl]piperidine-1-carboxylate] |  |  | 628 | 1500 |
| N#CC[C@@H](C1CCN(C(=O)OCc2ccccc2)CC1)n1cc(C(N)=O)c(Nc2ccc(F)cc2)n1 (single isomer, unassigned) [Example 12-6, benzyl 4-[(1S or 1R)-1-{4-carbamoyl-3-[(4-fluorophenyl)amino]-1H-pyrazol-1-yl}-2-cyanoethyl]piperidine-1-carboxylate] |  |  | 190 | 1500 |
| CC(C)(C)OC(=O)N1CCC(C(CC#N)n2cc(C(N)=O)c(Nc3ccc(F)cc3)n2)CC1 (single isomer, unassigned) [Example 14-3, tert-butyl 4-[(1S or 1R)-1-{4-carbamoyl-3-[(4-fluorophenyl)amino]-1H-pyrazol-1-yl}-2-cyanoethyl)piperidine-1-carboxylate] |  |  | 92 | 903 |
| CC(C)(C)OC(=O)N1CCC(C(CC#N)n2cc(C(N)=O)c(Nc3ccccc3)n2)CC1 (single isomer, unassigned) [Example 15-1, tert-Butyl 4-{(1S or 1R)-1-[4-carbamoyl-3-(phenylamino)-1H-pyrazol-1-yl]-2-cyanoethyl}piperidine-1-carboxylate] | 13 | 601 |  |  |
| CC[C@H](CC#N)n1cc(C(N)=O)c(Nc2ccccc2)n1 (single isomer, unassigned) [Example 16-1, 1-[(1R or 1S)-1-(cyanomethyl)propyl]-3-(phenylamino)-1H-pyrazole-4-carboxamide] | 43 | 578 |  |  |
| CC[C@@H](CC#N)n1cc(C(N)=O)c(Nc2ccccc2)n1 (single isomer, unassigned) [Example 16-2, 1-[(1R or 1S)-1-(cyanomethyl)propyl]-3-(phenylamino)-1H-pyrazole-4-carboxamide] | 136 | 800 |  |  |
| N#CCC(C1CCCC1)n1cc(C(N)=O)c(Nc2ccccc2)n1 (single isomer, unassigned) [Example 16-3, 1-[(1S or 1R)-2-cyano-1-cyclopentylethyl]-3-(phenylamino)-1H-pyrazole-4-carboxamide] |  |  | 47 | 742 |
| N#CCC(C1CCCC1)n1cc(C(N)=O)c(Nc2ccccc2)n1 (single isomer, unassigned) [Example 16-4, 1-[(1S or 1R)-2-cyano-1-cyclopentylethyl]-3-(phenylamino)-1H-pyrazole-4-carboxamide] |  |  | 141 | 567 |
| C[C@@H](CC#N)n1cc(C(N)=O)c(Nc2ccccc2)n1 (single isomer, unassigned) [Example 17-1, 1-[(2S or 2R)-1-cyanopropan-2-yl]-3-(phenylamino)-1H-pyrazole-4-carboxamide] | 224 | 1130 |  |  |

| Molecule | IC50 (JAK1; [1]) [nM] | IC50 (JAK2; [2]) [nM] | IC50 (JAK1; [3]) [nM] | IC50 (JAK2; [4]) [nM] |
| --- | --- | --- | --- | --- |
| C[C@H](CC#N)n1cc(C(N)=O)c(Nc2ccccc2)n1 (single isomer, unassigned) [Example 17-2, 1-[(2S or 2R)-1-cyanopropan-2-yl]-3-(phenylamino)-1H-pyrazole-4-carboxamide] | 47 | 469 |  |  |
| N#CCC(C1CC1)n1cc(C(N)=O)c(Nc2ccccc2)n1 (single isomer, unassigned) [Example 17-3, 1-[(1S or 1R)-2-cyano-1-cyclopropylethyl]-3-(phenylamino)-1H-pyrazole-4-carboxamide] |  |  | 10 | 79 |
| N#CC[C@H](C1CC1)n1cc(C(N)=O)c(Nc2ccnc(F)c2)n1 (single isomer, unassigned) [Example 17-4, 1-[(1R or 1S)-2-cyano-1-cyclopropylethyl]-3-[(2-fluoropyridin-4-yl)amino]-1H-pyrazole-4-carboxamide] |  |  | 2 | 16 |
| N#CC[C@@H](C1CC1)n1cc(C(N)=O)c(Nc2ccnc(F)c2)n1 (single isomer, unassigned) [Example 17-5, 1-[(1R or 1S)-2-cyano-1-cyclopropylethyl]-3-[(2-fluoropyridin-4-yl)amino]-1H-pyrazole-4-carboxamide] |  |  | 16 | 190 |
| Cc1noc(-c2ccc(Nc3nn([C@H](CC#N)C4CC4)cc3C(N)=O)cc2)n1 (single isomer, unassigned) [Example 18-1, 1-[(1R or 1S)-2-cyano-1-cyclopropylethyl]-3-{[4-(3-methyl-1,2,4-oxadiazol-5-yl)phenyl]amino}-1H-pyrazole-4-carboxamide] | 2 | 19 |  |  |
| Cc1noc(-c2ccc(Nc3nn([C@@H](CC#N)C4CC4)cc3C(N)=O)cc2)n1 (single isomer, unassigned) [Example 18-2, 1-[(1R or 1S)-2-cyano-1-cyclopropylethyl]-3-{[4-(3-methyl-1,2,4-oxadiazol-5-yl)phenyl]amino}-1H-pyrazole-4-carboxamide] | 34 | 257 |  |  |
| N#CC[C@H](C1CC1)n1cc(C(N)=O)c(Nc2ccc3c(c2)CNC3=O)n1 (single isomer, unassigned) [Example 19-1, 1-[(1R or 1S)-2-cyano-1-cyclopropylethyl]-3-[(1-oxo-2,3-dihydro-1H-isoindol-5-yl)amino]-1H-pyrazole-4-carboxamide] |  | 15 |  |  |
| N#CC[C@@H](C1CC1)n1cc(C(N)=O)c(Nc2ccc3c(c2)CNC3=O)n1 (single isomer, unassigned) [Example 19-2, 1-[(1R or 1S)-2-cyano-1-cyclopropylethyl]-3-[(1-oxo-2,3-dihydro-1H-isoindol-5-yl)amino]-1H-pyrazole-4-carboxamide] |  | 105 |  |  |
| CN(C)CCOC(=O)N1CCC([C@H](CC#N)n2cc(C(N)=O)c(Nc3ccc(F)cc3)n2)CC1 (stereo in doubt) [Example 11-1, 2-(Dimethylamino)ethyl 4-(1-{4-carbamoyl-3-[(4-fluorophenyl)amino]-1H-pyrazol-1-yl}-2-cyanoethyl)piperidine-1-carboxylate] |  |  | 959 | 1500 |
| N#CCC(C1CC1)n1cc(C(N)=O)c(Nc2ccccc2)n1 (stereo not shown) [Example 1-1, 1-(2-Cyano-1-cyclopropylethyl)-3-(phenylamino)-1H-pyrazole-4-carboxamide] |  |  | 10 | 79 |
| CC(C)(C)OC(=O)N1CCC(C(CC#N)n2cc(C(N)=O)c(Nc3ccccc3)n2)CC1 (stereo not shown) [Example 1-2, tert-butyl 4-{1-[4-carbamoyl-3-(phenylamino)-1H-pyrazol-1-yl]-2-cyanoethyl}piperidine-1-carboxylate] |  |  | 7 | 228 |
| CC(C)(C)OC(=O)N1CCC(C(CC#N)n2cc(C(N)=O)c(Nc3ccc(F)cc3)n2)C1 (stereo not shown) [Example 1-3, tert-butyl 3-(1-{4-carbamoyl-3-[(4-fluorophenyl)amino]-1H-pyrazol-1-yl}-2-cyanoethyl)pyrrolidine-1-carboxylate] |  |  | 267 | 1480 |
| N#CCCn1cc(C(N)=O)c(Nc2ccccc2)n1 [Example 1-4, 1-(2-cyanoethyl)-3-(phenylamino)-1H-pyrazole-4-carboxamide] |  |  | 348 | 1190 |
| N#CCc1cccc(Nc2nn(C(CC#N)C3CC3)cc2C(N)=O)c1 (stereo not shown) [Example 4-9, 1-(2-cyano-1-cyclopropylethyl)-3-{[3-(cyanomethyl)phenyl]amino}-1H-pyrazole-4-carboxamide] |  |  |  | 27 |
| N#CCC(C1CC1)n1cc(C(N)=O)c(Nc2ccc3c(c2)CNC3=O)n1 (stereo not shown) [Example 7, 1-(2-Cyano-1-cyclopropylethyl)-3-[(1-oxo-2,3-dihydro-4H-isoindol-5-yl)amino]-1H-pyrazole-4-carboxamide] |  |  |  | 38 |
